From US20230295260A1, “GLP RECEPTOR AGONISTS” (HEPTARES THERAPEUTICS LIMITED, priority 2020, published 2023) come the findings set out here.

One assay has as its target T1, mouse GLP1 receptor (Mus musculus, UniProt O35659).
T1 construct: expressed in transfected cells; host or cells: HEK cells, transient transfection with GeneJuice
T1 sequence (O35659 22-463): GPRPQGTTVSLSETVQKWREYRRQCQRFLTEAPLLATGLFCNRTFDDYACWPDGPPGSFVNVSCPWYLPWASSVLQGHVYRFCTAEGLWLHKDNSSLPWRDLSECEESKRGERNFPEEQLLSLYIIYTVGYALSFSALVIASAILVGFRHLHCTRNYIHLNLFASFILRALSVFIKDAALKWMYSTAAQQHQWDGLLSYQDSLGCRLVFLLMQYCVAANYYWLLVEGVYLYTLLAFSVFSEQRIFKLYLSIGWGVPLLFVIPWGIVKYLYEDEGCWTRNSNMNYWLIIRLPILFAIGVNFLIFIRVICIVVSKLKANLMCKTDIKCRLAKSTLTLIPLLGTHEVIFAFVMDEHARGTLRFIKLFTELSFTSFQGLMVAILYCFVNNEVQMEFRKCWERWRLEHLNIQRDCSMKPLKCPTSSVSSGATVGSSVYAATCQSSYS
Put plainly: cAMP accumulation assay (HTRF), functional agonism of mouse GLP1 receptor in HEK cells. Format: cell-based. Conditions: HEK cells transiently transfected, 45 min 37° C.; for Emax: HEK293, read-out: Mouse GLP-1 R agonist cAMP Emax; for EC50: read-out: Mouse GLP-1 R agonist cAMP pEC50 (converted). In general terms: Cyclic AMP is a second messenger, typically raised through Gs and lowered through Gi signalling.

A further assay deals with T2, human GLP1 receptor (Homo sapiens, UniProt P43220).
T2 construct: expressed in transfected cells; host or cells: HEK cells, BacMam virus transduction
Put plainly: cAMP accumulation assay (HTRF), functional agonism of human GLP1 receptor in HEK cells. Format: cell-based. The conditions noted are these: HEK cells, human GLP1 receptor BacMam, 45 min 37° C.; for Emax: HEK293, read-out: Human GLP-1R agonist cAMP Emax; for EC50: read-out: Human GLP-1R agonist cAMP pEC50 (converted).

The next assay concerns the target T3, mouse GLP2 receptor (Mus musculus, UniProt Q5IXF8).
T3 construct: expressed in transfected cells; host or cells: HEK cells, transient transfection with GeneJuice
T3 sequence (Q5IXF8 1-512): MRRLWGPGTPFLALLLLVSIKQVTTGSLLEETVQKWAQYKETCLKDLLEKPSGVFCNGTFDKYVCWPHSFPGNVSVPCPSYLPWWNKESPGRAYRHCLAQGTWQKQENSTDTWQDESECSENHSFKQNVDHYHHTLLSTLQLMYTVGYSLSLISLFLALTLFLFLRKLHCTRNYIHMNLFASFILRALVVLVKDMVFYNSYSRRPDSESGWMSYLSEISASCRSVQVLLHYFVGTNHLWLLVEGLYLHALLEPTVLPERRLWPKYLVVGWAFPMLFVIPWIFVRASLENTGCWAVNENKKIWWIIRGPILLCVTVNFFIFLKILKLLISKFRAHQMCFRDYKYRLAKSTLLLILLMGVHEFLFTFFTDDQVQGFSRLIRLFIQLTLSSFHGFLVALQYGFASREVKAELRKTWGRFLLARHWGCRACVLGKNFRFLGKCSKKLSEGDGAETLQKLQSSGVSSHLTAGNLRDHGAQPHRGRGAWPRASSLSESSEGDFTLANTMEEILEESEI
As to the kind of experiment: cAMP accumulation assay (HTRF), functional agonism of mouse GLP2 receptor in HEK cells. Conditions: HEK cells transiently transfected, 45 min 37° C.; for Emax: HEK293, read-out: Mouse GLP-2R agonist cAMP Emax; for EC50: read-out: Mouse GLP-2R agonist cAMP pEC50 (converted). Format: cell-based.

In a further assay the target is T4, human GLP2 receptor (Homo sapiens, UniProt O95838).
T4 sequence (O95838 1-553): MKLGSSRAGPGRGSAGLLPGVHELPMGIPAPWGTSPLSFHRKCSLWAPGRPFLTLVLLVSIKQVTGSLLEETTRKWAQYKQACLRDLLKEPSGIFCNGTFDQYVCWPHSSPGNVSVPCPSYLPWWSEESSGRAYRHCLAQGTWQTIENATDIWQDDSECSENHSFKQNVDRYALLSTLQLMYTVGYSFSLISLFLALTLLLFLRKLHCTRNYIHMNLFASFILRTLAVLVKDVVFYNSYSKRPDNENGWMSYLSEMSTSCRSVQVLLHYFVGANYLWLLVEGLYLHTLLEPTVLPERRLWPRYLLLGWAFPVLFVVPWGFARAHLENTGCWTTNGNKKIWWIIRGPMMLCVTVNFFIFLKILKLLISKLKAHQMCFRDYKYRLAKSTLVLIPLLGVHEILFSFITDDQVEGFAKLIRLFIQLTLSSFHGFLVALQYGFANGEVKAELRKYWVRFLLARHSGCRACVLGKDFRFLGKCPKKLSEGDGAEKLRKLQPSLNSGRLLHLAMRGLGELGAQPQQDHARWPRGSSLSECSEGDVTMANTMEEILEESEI
As to the kind of experiment: cAMP accumulation assay (HTRF), functional agonism of human GLP2 receptor in HEK cells.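 For all read-outs here: HEK cells transduced via BacMam to express human GLP2 receptor, agonist-stimulated cAMP measured by HTRF after 45 min at 37 °C in HBSS with 0.5 mM IBMX.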 The conditions noted are these: for Emax: HEK293, read-out: Human GLP-2R agonist cAMP Emax.

By Emax is commonly meant the size of the effect at its maximum, as opposed to the concentration needed. Broadly, the pEC50 is the negative decadic logarithm of the EC50, by convention in mol/L. Higher therefore signals a low EC50.

pEC50: −log10 of the molar value. Non-standard residues stand in square brackets, D forms with d. Residues, ends and D or L forms follow the SMILES beside them. *: point of attachment. Malonyl(2,2-Me2,histaminyl) = CC(C)(C(=O)NCCc1cnc[nH]1)C(=O)*; Ala(1H-tetrazol-5-yl) = N[C@@H](Cc1nnn[nH]1)C(=O)O; αMeL = CC(C)C[C@](C)(N)C(=O)O; Nle = CCCC[C@H](N)C(=O)O; Aib = CC(C)(N)C(=O)O; Alloc = C=CCOC(=O)*

T2 sequence (P43220 24-463): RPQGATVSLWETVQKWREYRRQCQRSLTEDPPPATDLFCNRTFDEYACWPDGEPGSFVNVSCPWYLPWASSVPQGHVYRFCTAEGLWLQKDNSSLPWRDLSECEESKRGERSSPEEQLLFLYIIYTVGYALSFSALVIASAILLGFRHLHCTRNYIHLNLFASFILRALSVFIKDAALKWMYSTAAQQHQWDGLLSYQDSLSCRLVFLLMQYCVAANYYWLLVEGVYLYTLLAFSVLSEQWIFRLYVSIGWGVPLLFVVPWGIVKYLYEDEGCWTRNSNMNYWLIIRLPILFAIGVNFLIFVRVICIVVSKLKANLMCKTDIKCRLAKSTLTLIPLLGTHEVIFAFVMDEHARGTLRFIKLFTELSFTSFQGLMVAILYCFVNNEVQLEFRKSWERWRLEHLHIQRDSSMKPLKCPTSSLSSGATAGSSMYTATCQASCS
Experimental for human GLP1 receptor: The functional activity of the peptides were assessed using a HTRF cAMP assay. pEC50 values are quoted.
cAMP production upon agonist stimulation of human GLP2 or GLP1 receptor was assessed utilizing HiRange cAMP kit (Cisbio). In brief, HEK cells were infected with either human GLP2 or GLP1 receptor BacMam virus for 24 hours and frozen for later use in the assay. […] Cells were prepared in the assay buffer (HBSS (Lonza) supplemented with 0.5 mM IBMX (Tocris)). After 45 min incubation at 37° C., the reaction was stopped by addition of the HTRF detection reagents in the lysis buffer provided in the kit.

For the compound `C=CCOC(=O)NCCCC[C@H](NC(=O)[C@H](CC(C)C)NC(=O)[C@H](CC(=O)O)NC(=O)[C@H](CC(C)C)NC(=O)[C@@H](NC(=O)[C@@H](NC(=O)[C@@H](Cc1ccccc1)NC(=O)[C@H](CCCC)NC(=O)[C@H](CCC(=O)O)NC(=O)[C@H](CC(=O)O)NC(=O)[C@H](CO)NC(=O)[C@H](Cc1ccccc1)NC(=O)[C@H](CO)NC(=O)CNC(=O)[C@H](Cc1nn[nH]n1)NC(=O)C(C)(C)C(=O)NCCc1c[nH]cn1)[C@@H](C)O)[C@@H](C)CC)C(=O)N[C@@H](C)C(=O)N[C@@H](C)C(=O)N[C@@H](CCCCN)C(=O)N[C@@H](CC(=O)O)C(=O)N[C@@H](Cc1ccccc1)C(=O)N[C@H](C(=O)N[C@@H](CC(N)=O)C(=O)N[C@@H](Cc1c[nH]c2ccccc12)C(=O)N[C@@H](CC(C)C)C(=O)N[C@H](C(=O)N[C@@H](CCC(N)=O)C(=O)N[C@H](C(=O)N[C@@H](CCCCN)C(=O)N[C@H](C(=O)N[C@H](C(=O)N[C@@H](Cc1ccccc1)C(N)=O)[C@@H](C)O)[C@@H](C)CC)[C@@H](C)O)[C@@H](C)CC)[C@@H](C)CC` [Example 2] ({Malonyl(2,2-Me2,histaminyl)}-[Ala(1H-tetrazol-5-yl)]GSFSDE[Nle][dF]TILDLK(Alloc)AAKDFINWLIQTKITF-NH2), the Emax on mouse GLP1 receptor was 96.1%; on human GLP1 receptor it was 94.7%; at mouse GLP2 receptor, 106%; at human GLP2 receptor, 101%. The EC50 was 25.1 nM at mouse GLP1 receptor, 7.94 nM on human GLP1 receptor and 3.98 nM on mouse GLP2 receptor. At human GLP2 receptor, this compound gave a pEC50 of 10.50.

With `C=CCOC(=O)NCCCC[C@H](NC(=O)[C@H](CC(C)C)NC(=O)[C@H](CC(=O)O)NC(=O)[C@H](CC(C)C)NC(=O)[C@@H](NC(=O)[C@@H](NC(=O)[C@@H](Cc1ccccc1)NC(=O)[C@H](CCCC)NC(=O)[C@H](CCC(=O)O)NC(=O)[C@H](CC(=O)O)NC(=O)[C@H](CO)NC(=O)[C@H](Cc1ccccc1)NC(=O)[C@H](CO)NC(=O)[C@H](C)NC(=O)[C@H](Cc1nn[nH]n1)NC(=O)C(C)(C)C(=O)NCCc1c[nH]cn1)[C@@H](C)O)[C@@H](C)CC)C(=O)N[C@@H](C)C(=O)N[C@@H](C)C(=O)N[C@@H](CCCCN)C(=O)N[C@@H](CC(=O)O)C(=O)N[C@@H](Cc1ccccc1)C(=O)N[C@H](C(=O)N[C@@H](CC(N)=O)C(=O)N[C@@H](Cc1c[nH]c2ccccc12)C(=O)N[C@@H](CC(C)C)C(=O)N[C@H](C(=O)N[C@@H](CCC(N)=O)C(=O)N[C@H](C(=O)N[C@@H](CCCCN)C(=O)N[C@H](C(=O)N[C@H](C(=O)N[C@@H](CC(=O)O)C(N)=O)[C@@H](C)O)[C@@H](C)CC)[C@@H](C)O)[C@@H](C)CC)[C@@H](C)CC` [Example 12] ({Malonyl(2,2-Me2,histaminyl)}-[Ala(1H-tetrazol-5-yl)]ASFSDE[Nle][dF]TILDLK(Alloc)AAKDFINWLIQTKITD-NH2), the Emax on mouse GLP1 receptor worked out at 83.3%; on human GLP1 receptor, 81.1%; on mouse GLP2 receptor, 100%; at human GLP2 receptor, 102%.

Take `C=CCOC(=O)NCCCC[C@H](NC(=O)[C@H](CC(C)C)NC(=O)[C@H](CC(=O)O)NC(=O)[C@H](CC(C)C)NC(=O)[C@@H](NC(=O)[C@@H](NC(=O)[C@@H](Cc1ccccc1)NC(=O)[C@H](CCCC)NC(=O)[C@H](CCC(=O)O)NC(=O)[C@H](CC(=O)O)NC(=O)[C@H](CO)NC(=O)[C@H](Cc1ccccc1)NC(=O)[C@H](CO)NC(=O)CNC(=O)[C@H](Cc1nn[nH]n1)NC(=O)C(C)(C)C(=O)NCCc1c[nH]cn1)[C@@H](C)O)[C@@H](C)CC)C(=O)N[C@@H](C)C(=O)N[C@@H](C)C(=O)N[C@@H](CCCCN)C(=O)N[C@@H](CC(=O)O)C(=O)N[C@@H](Cc1ccccc1)C(=O)N[C@H](C(=O)N[C@@H](CC(N)=O)C(=O)N[C@@H](Cc1c[nH]c2ccccc12)C(=O)N[C@@H](CC(C)C)C(=O)N[C@H](C(=O)N[C@@H](CCC(N)=O)C(=O)N[C@H](C(=O)N[C@@H](CCCCN)C(=O)N[C@@](C)(CC(C)C)C(=O)N[C@H](C(=O)N[C@@H](CC(=O)O)C(N)=O)[C@@H](C)O)[C@@H](C)O)[C@@H](C)CC)[C@@H](C)CC` [Example 13] ({Malonyl(2,2-Me2,histaminyl)}-[Ala(1H-tetrazol-5-yl)]GSFSDE[Nle][dF]TILDLK(Alloc)AAKDFINWLIQTK[αMeL]TD-NH2): the Emax on mouse GLP1 receptor amounted to 92.3%; on human GLP1 receptor, 93.4%; at mouse GLP2 receptor it was 101%; on human GLP2 receptor, 100%. Besides, the EC50 is 3.16 nM on mouse GLP1 receptor, 2.51 nM at human GLP1 receptor and 3.98 nM on mouse GLP2 receptor. This compound gave a pEC50 at human GLP2 receptor of 11.10.

Take `C=CCOC(=O)NCCCC[C@H](NC(=O)[C@H](C)NC(=O)[C@H](C)NC(=O)[C@H](CCCCNC(=O)OCC=C)NC(=O)[C@H](CC(C)C)NC(=O)[C@H](CC(=O)O)NC(=O)[C@H](CC(C)C)NC(=O)C(C)(C)NC(=O)[C@@H](NC(=O)[C@@H](Cc1ccccc1)NC(=O)[C@H](CCCC)NC(=O)[C@H](CCC(=O)O)NC(=O)[C@H](CC(=O)O)NC(=O)[C@H](CO)NC(=O)[C@H](Cc1ccccc1)NC(=O)[C@H](CO)NC(=O)CNC(=O)[C@H](Cc1nn[nH]n1)NC(=O)C(C)(C)C(=O)NCCc1c[nH]cn1)[C@@H](C)O)C(=O)N[C@@H](CC(=O)O)C(=O)N[C@@H](Cc1ccccc1)C(=O)N[C@H](C(=O)N[C@@H](CC(N)=O)C(=O)N[C@@H](Cc1c[nH]c2ccccc12)C(=O)N[C@@H](CC(C)C)C(=O)N[C@H](C(=O)N[C@@H](CCC(N)=O)C(=O)N[C@H](C(=O)N[C@@H](CCCCN)C(=O)N[C@H](C(=O)N[C@H](C(=O)N[C@@H](CC(=O)O)C(N)=O)[C@@H](C)O)[C@@H](C)CC)[C@@H](C)O)[C@@H](C)CC)[C@@H](C)CC` [Example 15] ({Malonyl(2,2-Me2,histaminyl)}-[Ala(1H-tetrazol-5-yl)]GSFSDE[Nle][dF]T[Aib]LDLK(Alloc)AAK(Alloc)DFINWLIQTKITD-NH2): the maximal effect (Emax) on mouse GLP1 receptor was 94.4%; at human GLP1 receptor, 95.1%; at mouse GLP2 receptor it was 99.9%; at human GLP2 receptor, 101%. In addition, the figures for the EC50 at mouse GLP1 receptor, on human GLP1 receptor and on mouse GLP2 receptor were 1.58 nM, 5.01 nM and 1.58 nM, respectively. Moreover, on human GLP2 receptor, the pEC50 is 11.10.
